Key:
[1] = target: T1, human STING protein (140-379) (Homo sapiens, UniProt Q86WV6, H232R); test: Radiometric filtration binding competition assay (WT_FBA_HIS-SUMO-hSWAT); conditions: read-out: WT-hSWAT IC50
T1 construct: 6XHIS-SUMO-hSTING (140-379); made in house; host or cells: BL-21(DE3) E. coli, pET vector
Experimental: A radiometric filtration binding competition assay was performed to quantify the binding affinity of compounds of the present application for the human or mouse STING protein, or associated HAQ human isoform. The competition format filtration binding assay detects the ability of small molecule compounds from binding to and inhibiting the subsequent binding of a tritiated [H3] […] The resulting dose response was fit by non-linear regression to determine an IC50 value, from which a Ki value for each compound was extrapolated.
Briefly, the recombinant C-terminal ligand binding domain of the human STING protein (140-379) or mouse STING protein (139-328) [0.5 μM] was incubated in the presence of a compound of the present application (8 point, 2 fold dilution starting at 300 μM) for 30 min or under control conditions. […] The resulting complexes were then filtered, dried, and scintillation fluid was added and the remaining radio signal was measured to determine the degree of compound ligand inhibition. This assay format was optimized for both the WT and HAQ isoforms of the human protein and the mouse orthologue protein.
Parameters optimized: • a. Form of protein: 6×HIS-SUMO tag or untagged • b. Concentration of target protein: Minimum concentration that achieved >80 max signal • c. Assay DMSO concentration: 10%-0.1% • d. Assay Buffer: Base (Tris or phosphate), Salt concentration, +/−Tween (0.1-2%) • e. […] Probe Concentration: Minimum concentration that achieved max assay window • g. Assay Format: Scintillation Proximity Bead or Filtration Binding Plate • h. Assay Plate: 384 vs 96 well format • i. Assay incubation times for successive incubation steps
WT-hSWAT: WT_FBA_HIS-SUMO-hSWAT IC50 (μM) (“WT”=Wild-type); and WT-mSWAT: MOUSE_FBA_HIS-SUMO-mSWAT C50 (μM) which is the mouse isoform of STING protein.

[2] = target: T2, hSTING-R232 (Homo sapiens, UniProt Q86WV6, H232R); test: STING Differential Scanning Fluorimetry (DSF) assay, human; assay type: binding; conditions: human STING R232-WT, 5 μM protein
T2 construct: recombinant mouse or human STING protein (aa140-379); 6xHis-SUMO elsewhere) (cleaved yes); made in house
T2 sequence (Q86WV6 140-379 H232R): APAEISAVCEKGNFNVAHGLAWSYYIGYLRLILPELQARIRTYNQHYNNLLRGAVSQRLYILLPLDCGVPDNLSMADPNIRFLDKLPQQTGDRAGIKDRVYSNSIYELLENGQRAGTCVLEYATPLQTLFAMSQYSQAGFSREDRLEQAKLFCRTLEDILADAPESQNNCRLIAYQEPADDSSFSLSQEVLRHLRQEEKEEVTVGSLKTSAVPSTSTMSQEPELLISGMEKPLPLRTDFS
Experimental: A STING DSF assay was performed to determine protein thermostability shift in response to small molecule ligand binding. A STING thermostability shift assay based on differential scanning fluorimetry was used to measure (1) the net shift in melting temperature (ΔTm)between the apo and ligand-bound states of the STING protein and (2) the concentration of the thermal denaturation transition (FC50) as a surrogate measure of binding affinity (Kd). Briefly, recombinant mouse or human STING protein (aa140-379) comprising the C-terminal binding domain (R232-WT) were purified by affinity chromatography and further processed to remove the purification tag, followed by gel filtration to achieve purity >95%. Protein in assay buffer was transferred to a 384 well plate and incubated with the hydrophobic fluorescent dye SYBR Orange. A temperature ramp was applied to the plate and the resulting dye fluorescence was plotted as a function of temperature. The first derivative of this function (dF/dT) was then used to extrapolate the melting temperature of the protein at various concentrations of compound and determine the thermal denaturation profile of a protein/compound complex.
2. 5 μM purified Target STING Protein
4. Buffer: 100 mM NaCl, 30 mM HEPES, pH 7.5
5. Thermal Ramp: 0.5° C./min
7. 11 point, 2 fold dilution, duplicate, 300 μM high concentrations

[3] = target: T3, STING protein (Homo sapiens, UniProt Q86WV6, H232R); test: Cell based reporter assay of IRF activation (THP1-dual-KI R232, IRF luciferase); conditions: THP-1; read-out: THP1-dual-KI R232_IRF(Luciferase)_Activity Maximum measured (%)
T3 construct: host or cells: THP-1 dual reporter cells, TMEM173 modified from HAQ to R232 (THP1-dual-KI R232)
T3 sequence (Q86WV6 whole entry H232R): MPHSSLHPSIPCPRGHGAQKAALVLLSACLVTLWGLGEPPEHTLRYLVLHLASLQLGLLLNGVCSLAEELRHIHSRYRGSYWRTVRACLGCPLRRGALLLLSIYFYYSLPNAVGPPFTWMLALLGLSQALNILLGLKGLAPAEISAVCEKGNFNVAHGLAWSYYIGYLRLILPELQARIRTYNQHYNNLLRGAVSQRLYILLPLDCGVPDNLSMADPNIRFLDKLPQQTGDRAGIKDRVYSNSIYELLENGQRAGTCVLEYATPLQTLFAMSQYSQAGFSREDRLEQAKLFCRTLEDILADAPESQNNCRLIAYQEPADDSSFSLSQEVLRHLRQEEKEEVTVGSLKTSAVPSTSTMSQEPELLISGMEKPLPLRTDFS
Source text: Cell reporter assays were developed to measure the ability of compounds of the application to activate the STING protein and activate both IRF/IFN and the NFkB signaling pathways in the myeloid derived cell line THP-1, which is commercially available from several suppliers. Briefly, THP-1 monocytes were transfected and selected for stable integration of 2 reporter constructs. Clones incorporating stably integrated vectors were further selected by antibiotic resistance to blastocidin and zeocin. The reporter constructs included: (1) firefly luciferase reporter gene under the control of an ISG54 promoter fused to five interferon (IFN)-stimulated response elements to measure IRF transcription factor binding activity and (2) secreted embryonic alkaline phosphatase reporter gene under transcription control of an IFN-beta minimal promoter fused to 5 copies of the NFkB consensus transcriptional response element and 3 copies of the c-Rel binding site.
The resulting THP-1 cell line was further modified to incorporate 3 amino acid point mutations (H71R A230G Q293R). This modification of the native TMEM173 gene in THP-1 cells (HAQ) was designed to produce a cell reporter that expressed the most common allelic variant in the human population (THP-1 R232, available from InvivoGen). Alternatively, the TMEM173 gene was knocked out to provide a congenic control to counter-screen for compound activation that was independent of the STING protein (THP-1 STING KO).
Once cell lines were established, reporter assay protocols were developed and optimized to screen small molecule compounds for agonist activity. Assay optimization for efficacy and Z′ value included titration of the following parameters:
1. No pre-activation with PMA
2. […]cells/well in 96 well plate format
7. Cell Titer Glo reagent (Promega) following supermatant removal
9. 8 point, 2 fold, duplicate starting at 150 μM PP28T

T1 sequence (Q86WV6 140-379 H232R): as the sequence (Q86WV6 140-379 H232R) above

SMILES	IC50 [1]	WT_DSF_hSWAT Tm Shift (° C.) [2]	Emax [3]
Cc1nccn1CCN(C)c1ccc2c(=O)c3ccc(Cl)c(N(C)C)c3n(CC(=O)O)c2n1 [Compound 82, sodium 2-[8-chloro-9-(dimethylamino)-2-{methyl[2-(2-methylimidazol-1-yl)ethyl]amino}-5-oxobenzo[b]1,8-naphthyridin-10-yl]acetate]	100 to 300 µM	D (“D” > 7° C.)	5 to 25%
Cc1ccc2c(=O)c3ccc(C(C)(C)C#N)nc3n(CC(=O)O)c2c1N(C)C [Compound 64, sodium 2-(2-(2-cyanopropan-2-yl)-9-(dimethylamino)-8-methyl-5-oxobenzo[b][1,8]naphthyridin-10(5H)-yl)acetate]	20 to 100 µM	D (“D” > 7° C.)	> 50%
CC(C)c1ccc2c(=O)c3ccc(Cl)c(N(C)C)c3n(CC(=O)O)c2n1 [Compound 7]	< 20 µM	D (“D” > 7° C.)	> 50%
CSc1c(Cl)ccc2c(=O)c3ccc(N(C)CCS(=O)(=O)C(C)C)nc3n(CC(=O)O)c12 [Compound 35, sodium 2-(8-chloro-2-{methyl[2-(propane-2-sulfonyl)ethyl]amino}-9-(methylsulfanyl)-5-oxobenzo[b]1,8-naphthyridin-10-yl)acetate]	20 to 100 µM	D (“D” > 7° C.)	> 50%
COCCN(CC(F)(F)F)c1ccc2c(=O)c3ccc(Cl)c(SC)c3n(CC(=O)O)c2n1 [Compound 50, sodium 2-(8-chloro-2-((2-methoxyethyl)(2,2,2-trifluoroethyl)amino)-9-(methylthio)-5-oxobenzo[b][1,8]naphthyridin-10(5H)-yl)acetate]	20 to 100 µM	D (“D” > 7° C.)	> 50%
CSc1c(Cl)ccc2c(=O)c3ccc(N(C)C)nc3n(CC(=O)O)c12 [Compound 22, sodium 2-(8-chloro-2-(dimethylamino)-9-(methylthio)-5-oxobenzo[b][1,8]naphthyridin-10(5H)-yl)acetate]	20 to 100 µM	D (“D” > 7° C.)	> 50%
CSc1c(Cl)ccc2c(=O)c3ccc(N(C)C4CC(C)(C)C4)nc3n(CC(=O)O)c12 [Compound 48, sodium 2-(8-chloro-2-((3,3-dimethylcyclobutyl)(methyl)amino)-9-(methylthio)-5-oxobenzo[b][1,8]naphthyridin-10(5H)-yl)acetate]	< 20 µM	D (“D” > 7° C.)	> 50%
CSc1c(Cl)ccc2c(=O)c3ccc(N(C)C4CC(C#N)C4)nc3n(CC(=O)O)c12 (stereo not shown) [Compound 49, sodium 2-(8-chloro-2-((3-cyanocyclobutyl)(methyl)amino)-9-(methylthio)-5-oxobenzo[b][1,8]naphthyridin-10(5H)-yl)acetate]	20 to 100 µM	D (“D” > 7° C.)	> 50%
Cc1ccc2c(=O)c3ccc(Cl)c(N(C)C)c3n(CC(=O)NC#N)c2n1 [Compound 11]	> 300 µM	B (“B” = 0-2° C.)	< 5%
CN(C)c1ccc2c(=O)c3ccc(Cl)c(N(C)C)c3n(CC(=O)O)c2n1 [Compound 19, sodium 2-(8-chloro-2,9-bis(dimethylamino)-5-oxobenzo[b][1,8]naphthyridin-10(5H)-yl)acetate]	20 to 100 µM	D (“D” > 7° C.)	> 50%
CCOc1c(Cl)ccc2c(=O)c3ccc(N(C)CCn4ccnc4)nc3n(CC(=O)O)c12 [Compound 72, sodium 2-(8-chloro-9-ethoxy-2-{[2-(imidazole-1-yl)ethyl](methyl)amino}-5-oxobenzo[b]1,8-naphthyridin-10-yl)acetate]	100 to 300 µM	D (“D” > 7° C.)	5 to 25%
CO[C@H]1C[C@@H](N(CC2CC2)c2ccc3c(=O)c4ccc(Cl)c(SC)c4n(CC(=O)O)c3n2)C1 [Compound 43, sodium 2-(8-chloro-2-((cyclopropylmethyl)(3-methoxycyclobutyl)amino)-9-(methylthio)-5-oxobenzo[b][1,8]naphthyridin-10(5H)-yl)acetate]	< 20 µM	D (“D” > 7° C.)	> 50%
COC1CC(CN(C)c2ccc3c(=O)c4ccc(Cl)c(SC)c4n(CC(=O)O)c3n2)C1 (stereo not shown) [Compound 39, Sodium 2-(8-chloro-2-(((3-methoxycyclobutyl)methyl)(methyl)amino)-9-(methylthio)-5-oxobenzo[b][1,8]naphthyridin-10(5H)-yl)acetate]	20 to 100 µM	D (“D” > 7° C.)	> 50%
CSc1c(Cl)ccc2c(=O)c3ccc(N(CC4CC4)C4CC(OC(F)F)C4)nc3n(CC(=O)O)c12 (stereo not shown) [Compound 46, sodium 2-(8-chloro-2-((cyclopropylmethyl)(3-(difluoromethoxy)cyclobutyl)amino)-9-(methylthio)-5-oxobenzo[b][1,8]naphthyridin-10(5H)-yl)acetate]	< 20 µM	D (“D” > 7° C.)	> 50%
CSc1ccc2c(=O)c3ccc(C(C)(C)C)nc3n(CC(=O)O)c2c1SC [Compound 13]	> 300 µM	B (“B” = 0-2° C.)	> 50%
CSc1c(C)ccc2c(=O)c3ccc(C(C)(C)C)nc3n(CC(=O)O)c12 [Compound 63, sodium 2-(2-(tert-butyl)-8-methyl-9-(methylthio)-5-oxobenzo[b][1,8]naphthyridin-10(5H)-yl)acetate]	20 to 100 µM	D (“D” > 7° C.)	> 50%
CSc1c(Cl)ccc2c(=O)c3cc(Cl)c(N(C)CC4CCOCC4)nc3n(CC(=O)O)c12 [Compound 76, sodium 2-(3,8-dichloro-2-(methyl((tetrahydro-2H-pyran-4-yl)methyl)amino)-9-(methylthio)-5-oxobenzo[b][1,8]naphthyridin-10(5H)-yl)acetate]	< 20 µM	D (“D” > 7° C.)	–
CO[C@H]1C[C@H](N(C)c2ccc3c(=O)c4ccc(C)c(N(C)C)c4n(CC(=O)O)c3n2)C1 [Compound 66, 2-(9-(dimethylamino)-2-(((1r,3r)-3-methoxycyclobutyl)(methyl)amino)-8-methyl-5-oxobenzo[b][1,8]naphthyridin-10(5H)-yl)acetic acid]	100 to 300 µM	C (“C” = 2-7° C.)	–

From patent publication US20220251079A1, “BENZO[B][1,8]NAPHTHYRIDINE ACETIC ACID DERIVATIVES AND METHODS OF USE” (STINGTHERA, INC., priority 2019, published 2022)
